Drawing on US5593984A, “Cephalosporin derivatives” (Yuhan Corporation, priority 1992, dated 1997), this text covers MIC for three compounds.

Common to all, as to format: cell-based
Assay [1] deals with Ps. aeruginosa ATCC 10145. The assay can be described thus: MIC by agar dilution, Ps. aeruginosa ATCC 10145. Conditions: Pseudomonas aeruginosa, ATCC10145, 17 h, Mueller-Hinton agar, read-out: Minimal Inhibitory Concentration (MIC). The method, boiled down: (§1)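 Agar dilution in Mueller-Hinton agar with two-fold compound dilutions. Each strain is inoculated at 10^6 CFU per ml and incubated at 35°-37° C. for 17±1 hours. Ceftazidime and cefotaxime serve as controls.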

Assay [2] concerns Ser. marcescens IFO 12648. Nature of the assay: MIC by agar dilution, Ser. marcescens IFO 12648. Conditions: Serratia marcescens, IFO12648, 17 h; Ser. marcescens IFO 12648; agar dilution, Mueller-Hinton agar; read-out: Minimal Inhibitory Concentration (MIC). The method, boiled down: as §1
(In agar dilution, organisms are placed on agar that contains the substance at set levels.)

The subject of assay [3] is M. morganii DY-1. Nature of the assay: MIC by agar dilution, M. morganii DY-1. Conditions: Morganella morganii, DY1, 17 h; M. morganii DY-1; agar dilution, Mueller-Hinton agar; read-out: Minimal Inhibitory Concentration (MIC). The method, boiled down: as §1
Assay [4] relates to Ps. aeruginosa DY-2. The assay can be described thus: MIC by agar dilution, Ps. aeruginosa DY-2. The note with it: Pseudomonas aeruginosa, DY2, 17 h; Ps. aeruginosa DY-2; agar dilution, Mueller-Hinton agar; read-out: Minimal Inhibitory Concentration (MIC). The method, boiled down:
as §1

Assay [5] relates to Staph. aureus C-57. The assay can be described thus: MIC by agar dilution, Staph. aureus C-57. Conditions: Staphylococcus aureus, C57, 17 h, Mueller-Hinton agar, read-out: Minimal Inhibitory Concentration (MIC). The method, boiled down:
as §1

Assay [6] relates to Staph. aureus C-5216. Nature of the assay: MIC by agar dilution, Staph. aureus C-5216. The note with it: Staphylococcus aureus, C5216, 17 h, Mueller-Hinton agar, read-out: Minimal Inhibitory Concentration (MIC). The method, boiled down:
as §1

Assay [7] has as its system Staph. aureus ATCC 6538P. The assay can be described thus: MIC by agar dilution, Staph. aureus ATCC 6538P. The note with it: Staphylococcus aureus, ATCC6538P, 17 h; Staph. aureus ATCC 6538P; agar dilution, Mueller-Hinton agar; read-out: Minimal Inhibitory Concentration (MIC). In a few lines: as §1
For assay [8], the system named is K. pneumoniae NCTC 9632. The assay can be described thus: MIC by agar dilution, K. pneumoniae NCTC 9632. The note with it: Klebsiella pneumoniae, NCTC9632, 17 h; K. pneumoniae NCTC 9632; agar dilution, Mueller-Hinton agar; read-out: Minimal Inhibitory Concentration (MIC). The method, boiled down: as §1
Assay [9] deals with Staph. aureus C-5113. The assay can be described thus: MIC by agar dilution, Staph. aureus C-5113. Conditions: Staphylococcus aureus, C5113, 17 h, Mueller-Hinton agar, read-out: Minimal Inhibitory Concentration (MIC). The method, boiled down: as §1
The test system of assay [10] is Staph. aureus Smith. The assay can be described thus: MIC by agar dilution, Staph. aureus Smith. The note with it: Staphylococcus aureus, 17 h, Mueller-Hinton agar, read-out: Minimal Inhibitory Concentration (MIC). In a few lines: as §1
In assay [11] the test system is B. subtilis ATCC 6633. Nature of the assay: MIC by agar dilution, B. subtilis ATCC 6633. Conditions: Bacillus subtilis, ATCC6633, 17 h; B. subtilis ATCC 6633; agar dilution, Mueller-Hinton agar; read-out: Minimal Inhibitory Concentration (MIC). In a few lines:
as §1

Assay [12] deals with S. epidermidis ATCC 12228. The assay can be described thus: MIC by agar dilution, S. epidermidis ATCC 12228. Conditions: Staphylococcus epidermidis, ATCC12228, 17 h; S. epidermidis ATCC 12228; agar dilution, Mueller-Hinton agar; read-out: Minimal Inhibitory Concentration (MIC). In a few lines:
as §1

The test system of assay [13] is Prov. stuartii IFO 12930. The assay can be described thus: MIC by agar dilution, Prov. stuartii IFO 12930. The note with it: Providencia stuartii, IFO12930, 17 h, Mueller-Hinton agar, read-out: Minimal Inhibitory Concentration (MIC). In a few lines: as §1
The test system of assay [14] is Ent. cloacae IFO 13535. Nature of the assay: MIC by agar dilution, Ent. cloacae IFO 13535. Conditions: Enterobacter cloacae, IFO13535, 17 h; Ent. cloacae IFO 13535; agar dilution, Mueller-Hinton agar; read-out: Minimal Inhibitory Concentration (MIC). The method, boiled down:
as §1

The subject of assay [15] is Ps. aeruginosa NCTC 10490. The assay can be described thus: MIC by agar dilution, Ps. aeruginosa NCTC 10490. The note with it: Pseudomonas aeruginosa, NCTC10490, 17 h, Mueller-Hinton agar, read-out: Minimal Inhibitory Concentration (MIC). In a few lines:
as §1

The test system of assay [16] is Ent. aerogenes IFO 12979. Nature of the assay: MIC by agar dilution, Ent. aerogenes IFO 12979. The note with it: Klebsiella aerogenes, IFO12979, 17 h, Mueller-Hinton agar, read-out: Minimal Inhibitory Concentration (MIC). The method, boiled down:
as §1

For assay [17], the system named is E. coli No. 29. Nature of the assay: MIC by agar dilution, E. coli No. 29. Conditions: Escherichia coli, 17 h; E. coli No. 29; agar dilution, Mueller-Hinton agar; read-out: Minimal Inhibitory Concentration (MIC). In a few lines: as §1
In assay [18] the test system is E. coli DY-1. The assay can be described thus: MIC by agar dilution, E. coli DY-1. The note with it: Escherichia coli, DY1, 17 h; E. coli DY-1; agar dilution, Mueller-Hinton agar; read-out: Minimal Inhibitory Concentration (MIC). In a few lines: as §1
Assay [19] deals with E. coli NIHJ JC-2. The assay can be described thus: MIC by agar dilution, E. coli NIHJ JC-2. The note with it: Escherichia coli, NIHJJC2, 17 h; E. coli NIHJ JC-2; agar dilution, Mueller-Hinton agar; read-out: Minimal Inhibitory Concentration (MIC). In a few lines:
as §1

Assay [20] has as its system P. vulgaris NCTC 8313. The assay can be described thus: MIC by agar dilution, P. vulgaris NCTC 8313. The note with it: Proteus vulgaris, NCTC8313, 17 h; P. vulgaris NCTC 8313; agar dilution, Mueller-Hinton agar; read-out: Minimal Inhibitory Concentration (MIC). In a few lines:
as §1

Structures are written as SMILES. Values after ≈ are worked out from the molar mass of the structure shown. Where only a bound is given, the exact number is not on record here.

As to `CON=C(C(=O)NC1C(=O)N2C(C(=O)[O-])=C(C[n+]3ccn4cccc4c3)CSC12)c1csc(N)n1` (stereo not drawn) [Ex. 1-1, 7-β-[(Z)-2-(2-aminothiazol-4-yl)2-methoxyiminoacetamido]-3-(pyrrolo[1,2a]pyrazinium-2-yl)methyl-3-cephem-4-carboxylate], the MIC in assay [1] was 0.39 µg/mL (≈ 0.759 µM); in assay [2] it was at most 0.006 µg/mL; in assay [3] it was at most 0.006 µg/mL; in assay [4] it was 1.56 µg/mL (≈ 3.04 µM); in assay [5] it was 25 µg/mL (≈ 48.7 µM); in assay [6], 0.78 µg/mL (≈ 1.52 µM). The MIC was 0.1 µg/mL (≈ 0.195 µM) in assay [7]; at most 0.006 µg/mL in assay [8]; 0.78 µg/mL (≈ 1.52 µM) in assay [9]; 0.39 µg/mL (≈ 0.759 µM) in assay [10]; 0.1 µg/mL (≈ 0.195 µM) in assay [11]; 0.025 µg/mL (≈ 0.0487 µM) in [12]. The MIC was at most 0.006 µg/mL in [13]; 0.05 µg/mL (≈ 0.0974 µM) in [14]; 0.1 µg/mL (≈ 0.195 µM) in [15]; at most 0.006 µg/mL in [16]; at most 0.006 µg/mL in [17]; at most 0.006 µg/mL in assay [18]. The MIC in [19] and in assay [20] was at most 0.006 µg/mL throughout.
As to `CON=C(C(=O)NC1C(=O)N2C(C(=O)[O-])=C(C[n+]3ccn4c(C(N)=O)ccc4c3)CSC12)c1csc(N)n1` (stereo not drawn) [Ex. 15, 7-β-[(Z)-2-(2-aminothiazol-4-yl)-2-methoxyiminoacetamido]-3-(6-carbamoylpyrrolo[1,2-a]pyrazinium-2-yl)methyl-3-cephem-4-carboxylate], the MIC in assay [1] is 0.39 µg/mL (≈ 0.701 µM); in assay [2], 0.012 µg/mL (≈ 0.0216 µM); in assay [3], at most 0.006 µg/mL; in assay [4], 3.13 µg/mL (≈ 5.62 µM); in assay [5], 12.5 µg/mL (≈ 22.5 µM); in [6], 0.78 µg/mL (≈ 1.4 µM). Further, the MIC was 0.2 µg/mL (≈ 0.359 µM) in [7]; at most 0.006 µg/mL in [8]; 0.78 µg/mL (≈ 1.4 µM) in assay [9]; 0.39 µg/mL (≈ 0.701 µM) in [10]; 0.05 µg/mL (≈ 0.0898 µM) in assay [11]; 0.025 µg/mL (≈ 0.0449 µM) in assay [12]. Moreover, the MIC is at most 0.006 µg/mL in assay [13]; 0.1 µg/mL (≈ 0.18 µM) in assay [14]; 0.1 µg/mL (≈ 0.18 µM) in assay [15]; at most 0.006 µg/mL in assay [16]; at most 0.006 µg/mL in [17]; at most 0.006 µg/mL in assay [18]. In addition, the MIC in assay [19] is at most 0.006 µg/mL; in assay [20], 0.012 µg/mL (≈ 0.0216 µM).
For the compound `Nc1nc(C(=NOCF)C(=O)NC2C(=O)N3C(C(=O)[O-])=C(C[n+]4ccn5c(CO)ccc5c4)CSC23)cs1` (stereo not drawn) [Ex. 22, 7-β-[(Z)-2-(2-aminothiazol-4-yl)-2-fluoromethoxyiminoacetamido]-3-(6-hydroxymethylpyrrolo[1,2-a]pyrazinium-2-yl)methyl-3-cephem-4-carboxylate], the MIC in assay [1] was 0.39 µg/mL (≈ 0.694 µM); in assay [2], at most 0.006 µg/mL; in assay [3], at most 0.006 µg/mL; in assay [4], 1.56 µg/mL (≈ 2.78 µM); in assay [5] it was 50 µg/mL (≈ 89 µM); in assay [6], 0.78 µg/mL (≈ 1.39 µM). In addition, the MIC is 0.2 µg/mL (≈ 0.356 µM) in [7]; at most 0.006 µg/mL in assay [8]; 1.56 µg/mL (≈ 2.78 µM) in assay [9]; 0.78 µg/mL (≈ 1.39 µM) in [10]; 0.1 µg/mL (≈ 0.178 µM) in assay [11]; 0.025 µg/mL (≈ 0.0445 µM) in assay [12]. The MIC was at most 0.006 µg/mL in assay [13]; 0.05 µg/mL (≈ 0.089 µM) in [14]; 0.1 µg/mL (≈ 0.178 µM) in [15]; at most 0.006 µg/mL in assay [16]; at most 0.006 µg/mL in assay [17]; at most 0.006 µg/mL in assay [18]. The MIC in assay [19] and in assay [20] was at most 0.006 µg/mL each time.
